Like-named read-outs stand apart in the source and are kept apart here.
What was measured:
[1] = Effect of food study: plasma pharmacokinetics fasted vs high-fat breakfast; format: in vivo, humans; conditions: for concentration at 0.5 h / concentration at 1 h / concentration at 2 h / concentration at 3 h / concentration at 4 h / concentration at 6 h / concentration at 8 h / concentration at 28 h / concentration at 48 h / concentration at 72 h / concentration at 12 h / concentration at 16 h / concentration at 24 h / concentration at 32 h / concentration at -0.5 h: male, human, plasma, oral, 100 mg, 100 mg eplerenone capsule; for concentration at 0.5 h: 0.5 hours after dosing; for concentration at 1 h: 1.0 hours after dosing; for concentration at 2 h: 2.0 hours after dosing; for concentration at 3 h: 3.0 hours after dosing; for concentration at 4 h: 4.0 hours after dosing; for concentration at 6 h: 6.0 hours after dosing; for concentration at 8 h: 8.0 hours after dosing; for concentration at 28 h: 28.0 hours after dosing; for concentration at 48 h: 48.0 hours after dosing; for concentration at 72 h: 72.0 hours after dosing; for concentration at 12 h / concentration at 16 h / concentration at 24 h / concentration at 32 h: […] after dosing; for concentration at -0.5 h: −0.5 hours after dosing
Protocol: An open-label randomized, cross-over study was employed to evaluate the pharmacokinetic profiles of eplerenone under fasted and fed conditions, and the safety and tolerability of eplerenone. Safety was assessed based on adverse events, vital signs and clinical laboratory tests. Twelve healthy male subjects were randomized to receive a single 100 mg dose of eplerenone on days 1 and 8 under (i) fasted conditions, or (ii) immediately following a high-fat breakfast. The subjects were orally administered (dosed) a single 100 mg dose of eplerenone in the form of the capsule described in Example 7, together with approximately 200 to 240 mL of water at 0800 hours on days 1 and 8. Subjects randomized to receive a high-fat breakfast were to completely ingest the meal within 20 minutes prior to dosing. The high-fat meal contained approximately 33 g protein, 75 g fat, 58 g carbohydrates and 1000 calories. […] All adverse events were mild in severity.

[2] = parameters: species or system beagle dogs; conditions: female, beagle, dog, in vivo
Protocol: The effect of the particle size of the eplerenone starting material used in the pharmaceutical composition on eplerenone plasma concentrations and relative bioavailability was studied in a dog model. Four healthy female beagle dogs weighing between 8 to 12 kg were intragastrically administered one immediate release (IR) capsule containing the formulation described in Table 30A below followed by about 10 mL of water.
The dogs were fasted for 15 to 20 hours prior to administration of the capsule and were not fed again until at least 4 hours after dose administration. Blood samples (approximately 3 mL) were collected by venipuncture in chilled tubes containing heparin at 0, 0.5, 1, 2, 3, 4, 6, 8 and 24 hours after dose administration. The blood samples were immediately placed on ice. Separation of plasma from the blood samples was complete after about 15 minutes of centrifugation. The resulting plasma samples were frozen at about −20° C. and stored until analyzed. Analysis was performed using an LC/MS/MS procedure.
This study was conducted using the same four dogs for three formulations that were identical except for the particle size of the eplerenone starting material. […]

[3] = Multiple dose study: plasma pharmacokinetics and urinary excretion; format: in vivo, humans; conditions: for AUC / Cmax / Tmax / half-life: male, human, plasma, oral; for half-life: read-out: T½ (converted)
Protocol: (§1) Multiple oral dose tolerability and the pharmacokinetics of several dosages of eplerenone were evaluated in a double-blind, randomized, placebo-controlled, rising oral dose, sequential panel study of 40 healthy male subjects (five groups of eight subjects). The study medication was administered in […] sequential dose panels, with each panel including eplerenone, spironolactone and placebo. […] The 100 mg and 200 mg dose capsules corresponded to those described in Examples 7 and 8, respectively. Following a 48-hour interval, the study drug was administered once a day for 11 days. Antialdosterone activity was determined following a fludrocortisone challenge on Days 12-13.

[4] = ADME study of [14C]eplerenone oral solution: excretion in urine, feces, breath; format: in vivo, humans
Protocol: An open-label, single dose study was employed to evaluate the absorption, distribution, metabolism and elimination profile of a single 100 mg dose of an oral solution of eplerenone.
The study employed eight healthy male humans. Each subject received a single 100 mg oral dose of a solution of [^14C]eplerenone (specific activity 0.75 μCi/mg). Plasma, saliva, breath, urine and fecal samples were collected at predetermined intervals and analyzed for sample radioactivity and the concentration of eplerenone and its open lactone ring form. Safety was determined on the basis of laboratory tests, vital signs, and the occurrence and types of adverse events.
The subjects, who underwent an overnight food fast prior to administration of the dose, received at 0800 hours a single 100 mg oral dose of an aqueous oral solution of radiolabeled eplerenone reconstituted in 80 mL of an apple juice/hydroxypropyl-β-cyclodextrin mixture. The subjects swallowed about 200 mL of water one, two and three hours post dosing.
Blood samples were collected at −0.5 (predose), 0.5, 1, 1.5, 2, 2.5, 3, 4, 6, 8, 12, 16, 24, 36, 48, 72 and 96 hours post dose. […] Individual fecal samples were collected beginning immediately after dosing and continuing through 0800 hours on day 8. In addition, one predose fecal sample was provided. Saliva samples were taken at 0.5 hour predose and at 0.5, 1, 2, 4, 6, 12, and 24 hours postdose. Breath samples were taken at 0.5 hour predose and at 1, 2, 3, 4, 6, 8, 12, 24, 36, 48 and 72 hours postdose.

[5] = Multiple dose study: serum electrolytes, renin, aldosterone, sex hormone and thyroid profiles; format: in vivo, humans
Protocol: as §1
Excretion of total eplerenone (that is, eplerenone and its open ring lactone form) in the urine represented approximately 5% of the dose for all doses administered. Urinary excretion of total eplerenone occurred almost entirely within the first 24 hours after dosing.

[6] = 100 mg, eplerenone 100 mg Dose, Multiple Dose
[7] = 100 mg, eplerenone 100 mg Dose, Single Dose
[8] = 300 mg, eplerenone 300 mg Dose, Multiple Dose
[9] = 300 mg, eplerenone 300 mg Dose, Single Dose
[10] = 1000 mg, eplerenone 1000 mg Dose, Multiple Dose
[11] = 1000 mg, eplerenone 1000 mg Dose, Single Dose
[12] = 100 mg [14C]eplerenone oral solution
[13] = 100 mg [14C]eplerenone oral solution, mean

## COC(=O)C1CC2=CC(=O)CCC2(C)C23OC2CC2(C)C(CC[C@@]24CCC(=O)O4)C13 (stereo partly drawn) [eplerenone, methyl hydrogen 9,11α-epoxy-17α-hydroxy-3-oxopregn-4-ene-7α,21-dicarboxylate, γ-lactone]
[1]; 100 mg capsule, fed vs fasted
  effect of high-fat meal on AUC0-96: minimal or no measurable effect
  effect of high-fat meal on Cmax: reduction
  effect of high-fat meal on Tmax: increase
  effect of high-fat meal on T½: minimal or no measurable effect
[1]; Fasted Conditions
  concentration at 0.5 h: 1010 ng/mL
  concentration at 1 h: 1560 ng/mL
  concentration at 2 h: 1390 ng/mL
  concentration at 3 h: 1170 ng/mL
  concentration at 4 h: 955 ng/mL
  concentration at 6 h: 587 ng/mL
  concentration at 8 h: 388 ng/mL
  concentration at 28 h: 7.62 ng/mL
  concentration at 48 h: 0 ng/mL
  concentration at 72 h: 0 ng/mL
  concentration at 12 h: 151 ng/mL
  concentration at 16 h: 68.8 ng/mL
  concentration at 24 h: 17.7 ng/mL
  concentration at 32 h: 3.28 ng/mL
  concentration at -0.5 h: 0 ng/mL
[1]; High Fat Breakfast
  concentration at 0.5 h: 71.2 ng/mL
  concentration at 1 h: 366 ng/mL
  concentration at 2 h: 712 ng/mL
  concentration at 3 h: 1040 ng/mL
  concentration at 4 h: 1240 ng/mL
  concentration at 6 h: 946 ng/mL
  concentration at 8 h: 673 ng/mL
  concentration at 28 h: 21.7 ng/mL
  concentration at 48 h: 1.91 ng/mL
  concentration at 72 h: 0 ng/mL
  concentration at 12 h: 282 ng/mL
  concentration at 16 h: 130 ng/mL
  concentration at 24 h: 39 ng/mL
  concentration at 32 h: 7.51 ng/mL
  concentration at -0.5 h: 0 ng/mL
[2]
  increase of relative bioavailability: ~100%
[3]; 100 mg to 1000 mg, single or multiple doses
  dose proportionality of plasma concentrations and dose-adjusted AUC: lack of dose proportionality
[3]; all dosing groups (100, 300, 1000 mg)
  plasma concentrations at 24 hours postdose: detectable
[3]; [6]
  AUC: 11800 ng·h/mL
  Cmax: 1900 ng/mL
  Tmax: 1.1 h
  half-life: 4 h
[3]; [7]
  AUC: 11300 ng·h/mL
  Cmax: 1750 ng/mL
  Tmax: 1.8 h
  half-life: 3.9 h
[3]; [8]
  AUC: 26500 ng·h/mL
  Cmax: 3580 ng/mL
  Tmax: 1.8 h
  half-life: 4.6 h
[3]; [9]
  AUC: 23900 ng·h/mL
  Cmax: 3230 ng/mL
  Tmax: 2.4 h
  half-life: 4.6 h
[3]; [10]
  AUC: 63200 ng·h/mL
  Cmax: 7390 ng/mL
  Tmax: 1.4 h
  half-life: 6.2 h
[3]; [11]
  AUC: 62100 ng·h/mL
  Cmax: 6880 ng/mL
  Tmax: 2 h
  half-life: 8.7 h
[3]; once a day for 11 days
  accumulation: no significant or dose-related accumulation
[4]; [12]
  share of urinary and fecal radioactivity due to eplerenone: less than 15%
  urinary radioactivity excreted within the first 24 hours: Over 90%
[4]; [13]
  dose excreted as total radioactivity in feces: 32.0%
  dose excreted as total radioactivity in urine: 66.6%
  dose excreted in feces as the named form: 0.807%
  dose excreted in urine as the named form: 1.65%
[4]; any time point, any subject
  total radioactivity in the breath: no detectable concentrations
[5]; 100-1000 mg
  mean plasma renin (active and total) levels: dose-related increases
  serum aldosterone levels: dose-related increases
  serum sex hormone and thyroid profiles: did not show any consistent, sustained or dose-related effects
[5]; multiple dose administration
  serum potassium concentrations: increases
  serum sodium concentrations: transient reductions
[5]; single doses
  serum sodium and potassium concentrations: not significantly changed
